Experimental data published in US20040192624A1, “Method for treating a disease, disorder or adverse effect caused by an elevated serum concentration of an UGT1A1 substrate” (priority 2003, published 2004).
One block for each molecule: values may come before it.

Tests used:
[1] = Ethinylestradiol pharmacokinetics alone and with ritonavir in healthy female volunteers; assay type: in vivo, human; settings: for t1/2: ethinylestradiol terminal phase, reported as harmonic mean
Protocol: This was an open-label, single-center study in healthy female volunteers who had not received an oral contraceptive for a minimum of six months prior to study start. Subjects received the first dose of oral contraceptive containing 50 μg of ethinyl estradiol on Day 1. […] On Day 15, 300 mg q12h was administered, 400 mg q12h was given on Day 16, and 500 mg q12h was administered thereafter. […] Blood samples for ethinylestradiol concentrations were collected for 48 h after each of the oral contraceptive doses.
Ethinylestradiol was supplied as Demulen@ 1/50-21 tablets (G.D. Searle & Co.) containing 50 μg of ethinylestradiol and 1 mg of ethynodiol diacetate and was administered at 8:00 a.m. on Day 1 and Day 29 with approximately 240 mL of water and within 15 minutes of a meal or snack.
Subjects were confined for 64 hours from Day -1 (day prior to the initial dose) through the first 48 hour blood collection (morning of Day 3) and for 64 hours from Day 28 through the second 48 hour blood collection (morning of Day 31). In addition, subjects came to the clinical testing unit as outpatients for meals, dosing and other study activities twice daily for a total of 14 consecutive days, starting on Day 15. Strenuous activity during confinement was not permitted. During confinement, subjects abstained from all food and beverages except for the scheduled meals and snacks provided in the study. Water was available ad libitum. All meals were standardized with regard to content during confinement. Breakfast, lunch, and dinner were served at approximately 7:30 a.m., 1:00 p.m. and 7:30 p.m. and snacks were provided at approximately 10:00 p.m., except on Days-1 and 28 when the snack was served at 9:45 p.m. An 8 hour fast was required prior to all blood collections for clinical laboratory analyses. The sequence of starting breakfast and dinner on each dosing day during confinement was maintained to the minute such that the time intervals relative to dosing were the same among all subjects.
Blood samples (7 mL) were collected for serum ethinyl estradiol concentrations at the following times relative to the dose on Day 1 and Day 29: prior to (0 h) and at 0.5, 1, 2, 3, 4, 6, 8, 10, 12, 18, 24, 30, 36, and 48 h post-dose. […] All plasma and serum samples were packed with dry ice and shipped to the analytical sites.
Analysis of serum samples for determination of ethinyl estradiol was performed at Pharmaco LSR, Richmond, Va. Ethinylestradiol serum concentrations were determined using a gas chromatography/mass spectrometry (GC/MS) method. 17α-ethinylestradiol and its corresponding isotopically labeled internal standard were isolated from human serum by buffering the serum to pH 8.6 and then extracting with an ethyl ether/methylene chloride mixture. The organic layer was exchanged into aqueous base, washed with hexane and then acidified and extracted with methylene chloride. The extract was dried with sodium carbonate, evaporated and derivatized. The derivatized extract was stored at −20° C. until analysis. Analysis was by capillary GC/MS using negative chemical ionization with selected ion monitoring. This method has been validated over 17α-ethinylestradiol concentrations ranging from 2.00 to 256 pg/mL for a 1.0 mL serum volume, with a minimum quantitation limit of 2.00 pg/mL.
Ethinylestradiol pharmacokinetic parameters were estimated following two single doses, on Day 1 and Day 29, using noncompartmental methods. The pharmacokinetic parameters were calculated using the intended sampling times; all samples were collected within 10% of intended sampling times. Maximal plasma concentration (Cmax,) and time to reach Cmax (Tmax) were obtained directly from individual concentration vs. time profiles. […]

[2] = tested on: UDP-glucuronosyltransferase 1A (UGT1A); assay: Rat liver microarray, all 5 UGT1A probe sets; assay type: in vivo, Sprague-Dawley rats; settings: rats, dose levels of 100 mg/kg and higher, after 1 and 3 days of treatment
[3] = tested on: UDP-glucuronosyltransferase 1 family, member 1; assay: Rat liver microarray (Affymetrix Rat U34), induction of probe sequences by ritonavir; assay type: in vivo, Sprague-Dawley rats; settings: 3-Day Studies
[4] = tested on: 3-methylcholanthrene-inducible UDP-glucuronosyltransferase; assay: as above; assay type: in vivo, Sprague-Dawley rats; settings: 3-Day Studies, probe sequence 4 of 5, rat liver
[5] = tested on: UDP glucuronosyltransferase, exon 1.; assay: as above; settings: 3-Day Studies, probe sequence 5 of 5, rat liver
UGT1A1 = assay: Hepatic 17α-ethinylestradiol glucuronidation activity in liver microsomes of treated rats; settings: both male and female rats
UGT1A1 isoform = target: T1, UGT1A1 isoform (Homo sapiens, UniProt P22309); settings: human cells transfected with the UGT1A1 isoform; cited from earlier work
T1 sequence (P22309 26-533): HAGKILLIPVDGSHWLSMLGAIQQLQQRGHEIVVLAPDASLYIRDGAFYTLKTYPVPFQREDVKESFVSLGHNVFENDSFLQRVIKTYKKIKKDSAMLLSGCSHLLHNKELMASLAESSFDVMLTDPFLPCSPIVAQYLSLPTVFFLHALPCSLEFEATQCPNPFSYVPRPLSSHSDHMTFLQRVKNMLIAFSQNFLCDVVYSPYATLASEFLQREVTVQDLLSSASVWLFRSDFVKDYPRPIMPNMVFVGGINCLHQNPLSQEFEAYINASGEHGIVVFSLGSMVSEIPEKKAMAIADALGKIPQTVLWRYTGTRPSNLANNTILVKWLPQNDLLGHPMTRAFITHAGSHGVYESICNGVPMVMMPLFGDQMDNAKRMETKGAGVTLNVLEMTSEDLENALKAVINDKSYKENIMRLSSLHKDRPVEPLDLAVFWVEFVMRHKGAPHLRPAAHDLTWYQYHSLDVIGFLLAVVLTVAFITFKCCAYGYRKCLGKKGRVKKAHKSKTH

[6] = tested on: bilirubin conjugation in human microsomes; settings: in vitro system of human microsomes; cited from earlier work
[7] = tested on: bilirubin-conjugating activity; settings: indinavir treatment; cited from earlier work
[8] = female, human, serum, po, 50 μg

t1/2 ([1]; alone Day 1, with ritonavir 500 mg q12h Day 29): 17.0 h | t1/2 ([1]; alone Day 1, with ritonavir 500 mg q12h Day 29, listed as ethinyl estradiol): 17.0 h | half-life ([1]; female, human, serum, oral, 500 mg): 17 h | AUC(0-inf) [1, 8]: 1.67 ± 0.377 ng·h/mL | Cmax [1, 8]: 0.104 ± 0.024 ng/mL | Tmax ([1]; female, human, serum, po, 50 μg, serum ethinylestradiol after single oral contraceptive dose (50 μg), Mean ± SD, n = 23, alone Day 1, with ritonavir 500 mg q12h Day 29): ~4 h
SMILES: C#C[C@]1(O)CC[C@H]2[C@@H]3CCc4cc(O)ccc4[C@H]3CC[C@@]21C [Ethinylestradiol, 17α-ethinylestradiol]

UGT1A levels for all probe sets [2]: consistent increase
SMILES: CC(C)c1nc(CN(C)C(=O)N[C@H](C(=O)N[C@@H](Cc2ccccc2)C[C@H](O)[C@H](Cc2ccccc2)NC(=O)OCc2cncs2)C(C)C)cs1 [ritonavir]
Fold change, UDP-glucuronosyltransferase 1 family, member 1 ([3]; 75 mg/kg, probe sequence 1 of 5, rat liver): 1.56 | Fold change, UDP-glucuronosyltransferase 1 family, member 1 ([3]; 75 mg/kg, probe sequence 2 of 5, rat liver): 1.38 | Fold change, UDP-glucuronosyltransferase 1 family, member 1 ([3]; 75 mg/kg, probe sequence 3 of 5, rat liver): 1.57 | Fold change, UDP-glucuronosyltransferase 1 family, member 1 ([3]; 100 mg/kg, probe sequence 1 of 5, rat liver): 1.67 | Fold change, UDP-glucuronosyltransferase 1 family, member 1 ([3]; 100 mg/kg, probe sequence 2 of 5, rat liver): 1.46 | Fold change, UDP-glucuronosyltransferase 1 family, member 1 ([3]; 100 mg/kg, probe sequence 3 of 5, rat liver): 1.61 | Fold change, UDP-glucuronosyltransferase 1 family, member 1 ([3]; 125 mg/kg, probe sequence 1 of 5, rat liver): 1.54 | Fold change, UDP-glucuronosyltransferase 1 family, member 1 ([3]; 125 mg/kg, probe sequence 2 of 5, rat liver): 1.42 | Fold change, UDP-glucuronosyltransferase 1 family, member 1 ([3]; 125 mg/kg, probe sequence 3 of 5, rat liver): 1.65 | Fold change, 3-methylcholanthrene-inducible UDP-glucuronosyltransferase ([4]; 75 mg/kg): 1.97 | Fold change, 3-methylcholanthrene-inducible UDP-glucuronosyltransferase ([4]; 100 mg/kg): 2.26 | Fold change, 3-methylcholanthrene-inducible UDP-glucuronosyltransferase ([4]; 125 mg/kg): 2.25 | Fold change, UDP glucuronosyltransferase, exon 1. ([5]; 100 mg/kg): 3.96 | Fold change, UDP glucuronosyltransferase, exon 1. ([5]; 125 mg/kg): 5.06 | effect on glucuronidation of 17α-ethinylestradiol, a UGT1A1 substrate (UGT1A1): significantly increase

SMILES: COC(=O)N[C@H](C(=O)N[C@@H](Cc1ccccc1)[C@@H](O)CN(Cc1ccc(-c2ccccn2)cc1)NC(=O)[C@@H](NC(=O)OC)C(C)(C)C)C(C)(C)C [atazanavir]
inhibition of bilirubin conjugation (UGT1A1 isoform): micromolar range | inhibition of bilirubin conjugation [6]: micromolar range

SMILES: CC(C)(C)NC(=O)[C@@H]1CN(Cc2cccnc2)CCN1C[C@@H](O)C[C@@H](Cc1ccccc1)C(=O)N[C@H]1c2ccccc2C[C@H]1O [indinavir]
cause of elevations in serum-unconjugated bilirubin [7]: direct inhibition of bilirubin-conjugating activity
